In PubChem BioAssay AID1421 (Emory University Molecular Libraries Screening Center, 2008):
“And” between values parts separate entries of the source, which are not always exact repeats. Equal entries are not always repeated. The source made the active and inactive calls. How the calls were made is not given here.

Target: Prostaglandin E2 receptor EP2 subtype (Homo sapiens) (UniProt P43116)
Test: EP2 receptor modulators, dose response, cell-based, human EP2, PGE2 EC50 shift (AID 1421)
Conditions: EP2-expressing cells, PGE2 EC50 shift by compound

Chain of Prostaglandin E2 receptor EP2 subtype (Homo sapiens) (P43116 whole entry, looked up): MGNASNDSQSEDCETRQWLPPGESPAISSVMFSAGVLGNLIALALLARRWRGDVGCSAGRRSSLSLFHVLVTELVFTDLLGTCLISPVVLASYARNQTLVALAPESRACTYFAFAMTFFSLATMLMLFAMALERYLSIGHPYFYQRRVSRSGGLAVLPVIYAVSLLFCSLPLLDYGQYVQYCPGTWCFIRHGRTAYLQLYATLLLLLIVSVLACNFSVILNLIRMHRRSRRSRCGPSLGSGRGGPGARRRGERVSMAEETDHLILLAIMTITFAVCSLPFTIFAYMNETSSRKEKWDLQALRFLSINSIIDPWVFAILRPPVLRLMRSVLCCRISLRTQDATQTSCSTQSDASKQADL

| Compound | outcome |
| --- | --- |
| CCCc1cc(C(=O)OC)c(NC(=O)c2cc(C)on2)s1 | active |
| CC1CCN(c2ccccc2NC(=O)c2ccc(C#N)cc2F)CC1 | active |
| CCOC(=O)c1c(NC(=O)c2cccs2)sc(C)c1CC | active |
| O=C(N/N=C/c1cccc(F)c1)NC1CCCCC1 | active |
| CCOc1ccccc1NC1c2ccccc2C(=O)N1c1ccc(C)cn1 (centres undefined) | active |
| CC1CCC(C(C)C)C(OC(=O)COC(=O)c2ccc(=O)[nH]c2)C1 (centres undefined) | active |
| Cc1sc(NC(=O)c2ccccc2F)c(CN2CCCCC2C)c1C (centres undefined) | active |
| Cc1ccccc1C(=O)Nc1ccccc1N1CCCCC1 | active |
| CCOC(=O)c1c(NC(=O)c2ccoc2C)sc(C)c1C | active |

Same assay, conditions: EP2-expressing cells, PGE2 EC50 shift by compound; measured here: PGE2 EC50 at 6.7 uM compound

| Compound | PGE2 EC50 with compound |
| --- | --- |
| COc1ccccc1-c1nnc(SCC(=O)c2ccc(C3CCCCC3)cc2)n1Cc1ccco1 | 0.71 nM |
| CCn1c2ccccc2c2nc3ccccc3nc21 | 1.55 nM |
| COc1ccc(CN2C(=O)CN=C2Nc2cc(C)ccc2C)cc1 | 1.04 nM |
| CC(Sc1nnc(-c2cccs2)n1Cc1ccccc1)C(=O)NCc1ccc2c(c1)OCO2 (centres undefined) | 0.62 nM |
| O=c1n(Cc2ccccc2F)c2ccccc2n1Cc1ccccc1F | 1.01 nM |
| COCCn1c(SCC(=O)NCCc2ccccc2)nnc1-c1ccco1 | 1.4 nM |
| Cc1ccc(C(=O)OCC(=O)Nc2ccccc2Sc2ccccc2)cc1C | 0.85 nM |
| CN(CC(=O)Nc1ccccc1Oc1ccccc1)Cc1ccccc1F | 2.47 nM |
| Cc1cc(C(=O)CSc2nc3ccccc3c(=O)n2C)c(C)n1Cc1ccc2c(c1)OCO2 | 3.33 nM |
| c1ccc(-c2ccccc2-c2nc(-c3cccnc3)no2)cc1 | 2.82 nM |
| CCCc1cc(C(=O)OC)c(NC(=O)c2cc(C)on2)s1 | 0.7 nM |
| O=S(=O)(c1cccs1)N1CN(Cc2cccs2)c2nc3ccccc3nc21 | 1.64 nM |
| O=C(CN1CCCCC1)N1c2ccccc2Sc2ccc(C(F)(F)F)cc21 | 1.45 nM |
| CCOC(=O)c1c(C)nc2ccccc2c1-c1ccccc1 | 1.31 nM |
| COC(=O)c1cc(Br)c(=O)n(-c2nccs2)c1 | 2.71 nM |
| C=CCc1cc(C=O)cc(OC)c1OCc1ccc(Cl)cc1 | 0.57 nM |
| CC(=O)Oc1c2c(c3c(c1CC=C(C)C)O[C@]14C(=C[C@@H]5CC1C(C)(C)OC4(C/C=C(\C)C(=O)O)C5=O)C3=O)OC(C)(CCC=C(C)C)C=C2 (some centres undefined) | 0.89 nM |
| Cc1ccc(-c2nc3ccccc3nc2Cl)cc1 | 0.49 nM |
| Cc1ccc(N(Cc2ccccc2)Cc2ccccc2)cc1 | 1.7 nM |
| CC1CCN(c2ccccc2NC(=O)c2ccc(C#N)cc2F)CC1 | 0.93 nM |
| O=C1c2ccccc2OC2(C=Cc3ccccc3O2)N1Cc1ccccc1 (centres undefined) | 0.31 nM |
| COc1ccc(-c2nnc3ccc(SCC(=O)Nc4nc5ccccc5s4)nn23)cc1OC | 0.67 nM |
| COC(=O)c1cc2occc2n1Cc1cccc(C)c1 | 0.79 nM |
| O=C(Nc1ccccc1Br)c1ccccc1-c1ccccc1 | 2.5 nM |
| CCOP(=O)(OCC)c1nc(-c2cccc3ccccc23)oc1NCCc1ccc(OC)cc1 | 0.96 nM |

| Compound | PGE2 EC50 with compound |
| --- | --- |
| CCOC(=O)c1c(NC(=O)c2cccs2)sc(C)c1CC | 1.51 nM |
| COc1ccc(C(=O)NCC(=O)n2nc(C)cc2C)cc1OC | 1.6 nM |
| Cn1c(=O)c2c(SCc3cccnc3)nc(CC(C)(C)C)nc2n(C)c1=O | 2.57 nM |
| Cc1ccc(-n2c(SCC(N)=O)nc3c(c2=O)C2(CCCC2)Cc2ccccc2-3)cc1 | 2.78 nM |
| O=c1[nH]c2ccc(Br)cc2c(-c2ccccc2)c1N1CCOCC1 | 1.07 nM |
| Cn1c(=O)c2c(SC3CCCC3)nc(C3CC3)nc2n(C)c1=O | 0.61 nM |
| CCOC(=O)c1c(C=O)c(C)n(Cc2ccccc2Cl)c1C | 1.34 nM |
| Nc1cccc(OCc2nc(N)nc(N)c2-c2ccc(Cl)cc2)c1 | 1.24 nM |
| Cc1ccc(S(=O)(=O)N(CC(=O)N=Nc2c(O)[nH]c3ccccc23)c2ccc(C)c(C)c2)cc1 | 2.05 nM |
| Cc1nccc2[nH]c(=O)c(C(=O)NC3CCCCC3C)cc12 (centres undefined) | 1.44 nM |
| COc1ccc(C(=O)Nc2ccccc2N2CCCCC2)cc1[N+](=O)[O-] | 1.01 nM |
| CCCCc1ccc(-n2c(Cc3cccs3)n[nH]c2=S)cc1 | 0.8 nM |
| COc1ccc2cc3c(N)nn(C(=O)C4CCC(C(C)(C)C)CC4)c3nc2c1 (centres undefined) | 1.08 nM |
| CCCCNc1nc(-c2ccccc2)c(C(=O)OCC)cc1C#N | 0.88 nM |
| O=C(N/N=C/c1cccc(F)c1)NC1CCCCC1 | 1.1 nM |
| CCOc1ccccc1NC1c2ccccc2C(=O)N1c1ccc(C)cn1 (centres undefined) | 0.89 nM |
| O=C(c1ccc(Cl)cc1)c1oc2ccccc2c1CS(=O)c1ccccc1 (centres undefined) | 0.87 nM |
| CC1(C)C2CCC1(C)C(OC(=O)CC(=O)O)C2 (centres undefined) | 0.72 nM |
| Cc1ccccc1Cn1c2ccccc2c2cn[nH]c(=O)c21 | 1.15 nM |
| C=CCNC(=S)NNc1nc(Nc2ccccc2)nc(N2CCCCC2)n1 | 1.42 nM |
| CCOC(=O)c1c(NC(=O)CSc2nnc(C)s2)sc2c1CCC(C)C2 (centres undefined) | 0.95 nM |
| CCOC(=O)c1c(N)sc2c1CCC(CC)C2 (centres undefined) | 1.5 nM |
| CCOC(=O)c1sc2nc(C)nc(N3CCN(c4ncccn4)CC3)c2c1C | 0.62 nM |
| CN(C)c1nc(-c2ccccc2)c2cnn(Cc3ccccc3)c2n1 | 1.12 nM |
| O=C(O)NCc1ccccc1 (tested in a mixture with another compound) | 1.38 nM |

| Compound | PGE2 EC50 with compound |
| --- | --- |
| CC1CCC(C(C)C)C(OC(=O)COC(=O)c2ccc(=O)[nH]c2)C1 (centres undefined) | 1.4 nM |
| O=C(O)c1ccc(-c2ccccc2C(F)(F)F)o1 | 0.92 nM |
| Cc1cnn(-c2nc(-c3ccccc3)cc(-c3ccccc3)n2)c1 | 0.95 nM |
| CCOP(=O)(OCC)c1nc(-c2ccc(Cl)cc2Cl)oc1N1CCCCC1 | 1.42 nM |
| CCOC(=O)c1c(CC(C)C)csc1/N=C/C1C(=O)CCCC1=O | 1 nM |
| CC(C)n1c2ccccc2c2nc3ccccc3nc21 | 2.59 nM |
| CCC(c1nnnn1C1CCCC1)N(Cc1cccs1)Cc1cc2cc(C)ccc2[nH]c1=O (centres undefined) | 0.33 nM |
| O=c1c2cn[nH]c2nc(SCc2ccccc2F)n1-c1ccc(Br)cc1 | 0.77 nM |
| COc1ccc(Oc2cc(C(F)(F)F)nc(N(C)C)n2)cc1 | 0.63 nM |
| COc1cc(NC(=S)NC(=O)c2cc(C)cc(C)c2)ccc1NC(=O)c1cccs1 | 2.54 nM |
| COc1cc(C=O)ccc1OC(=O)c1ccc(C(C)C)cc1 | 1.44 nM |
| Cc1sc(NC(=O)c2ccccc2F)c(CN2CCCCC2C)c1C (centres undefined) | 0.88 nM |
| CC1(C)Cc2nc3nc(SCC(=O)Nc4ccccc4)nc(N)c3cc2CO1 | 1.4 nM |
| CCC1C/C(=C/c2ccco2)C(=O)/C(=C/c2ccco2)C1 (centres undefined) | 1.02 nM |
| Cc1ccc(N/C(C(Cl)=C(Cl)Cl)=C(/Cl)[N+](=O)[O-])c(C)c1 | 1.32 nM |
| Cc1oncc1-c1csc(-c2ccccc2Cl)n1 | 1 nM |
| CCOc1cc(S(=O)(=O)NCCc2cccc(C)c2)c(OCC)cc1-n1cnnn1 | 1.21 nM |
| Cc1ccccc1C(=O)Nc1ccccc1N1CCCCC1 | 1.41 nM |
| Cc1cccc(C(=O)Nc2cccc(OCC(=O)O)c2)c1 | 6.72 nM |
| Cc1ccc(-n2nc3c(c2NC(=O)c2ccc(Br)o2)CSC3)c(C)c1 | 1.36 nM |
| O=C(O)CCSc1ccc2ccccc2n1 | 2.87 nM and 2.98 nM |
| O=C(Cc1ccccc1)Nc1ccccc1N1CCN(c2ccccc2)CC1 | 0.95 nM |
| COC(=O)c1cc2ccsc2n1Cc1ccccc1F | 0.83 nM |
| CSc1nnc2c3ccccc3c3ccccc3c2n1 | 1 nM |
| CCOC(=O)c1c(NC(=O)c2ccoc2C)sc(C)c1C | 0.94 nM |
